The record followed here is patent publication US20050153406A1, “Process for producing solution containing ubiquinone-10” (priority 2002, published 2005).

This data set is described as follows: Solubility of ubiquinone-10 in aqueous methanol solution. In kind it is physicochemical. The following applies: aqueous methanol solutions of varying concentration at 20, 30, 50 and 70° C. (FIG. 1). The text has this:
Using a standard ubiquinone-10 (manufactured by Wako Pure Chemical Industries Co., Ltd.), the solubility of ubiquinone-10 is an aqueous methanol solution was examined in terms of the relation between the concentration of the solution and temperature.

In the case of `COC1=C(OC)C(=O)C(C/C=C(\C)CC/C=C(\C)CC/C=C(\C)CC/C=C(\C)CC/C=C(\C)CC/C=C(\C)CC/C=C(\C)CC/C=C(\C)CC/C=C(\C)CCC=C(C)C)=C(C)C1=O` [ubiquinone-10], the “solubility of ubiquinone-10 in aqueous methanol solution” value was “increased in proportion to the methanol concentration and the temperature of the aqueous methanol solution”.
